Laboratory results from PMC8452690, “Structural basis for small molecule targeting of Doublecortin Like Kinase 1 with DCLK1-IN-1” (Communications Biology, 2021).
Positions count from the first letter of the chain named. Values joined by “and” are separate entries in the source; they are usually repeats but may differ in a detail not shown here. Identical values can stand only once.

What was measured:
[1] = test system: tubulin; test: Tubulin polymerisation in the absence of DCLK1 (pelleting and fluorescence assays); format: biochemical; conditions: absence of DCLK1-FL1Δ D511N
Description: (§1) Tubulin polymerisation assays were performed in buffer containing 80 mM PIPES at pH 6.9, 2.0 mM MgCl2, 0.5 mM EGTA, 2.5 mM β,γ-Methyleneguanosine 5’-triphosphate, and 10 μM tubulin and 5 μM DCLK1 for 1 h at 37 °C. For tubulin polymerisation in the presence of inhibitors, various concentrations of the inhibitors were first incubated with DCLK1 and allowed to stand on ice for 5 min before adding this mix to the tubulin polymerisation reaction. Following the tubulin polymerisation, the reaction mix was pelleted at 20,000 g for 20 min and the supernatant and the pellet fractions were run on a 12% SDS gel. The data shown are representative of two independent experiments.
Tubulin polymerisation assay were performed using the Microtubule Polymerisation/Depolymerisation Fluorescence Kit (Cytoskeleton #BK011P) in accordance with the manufacturer’s instructions. DCLK1 (4 μΜ) was added to 50 μL tubulin reaction mix containing Buffer 1 (80 mM PIPES at pH 6.9, 2.0 mM MgCl2, 0.5 mM EGTA, 10 μM fluorescent reporter), guanosine triphosphate stock solution at 100 mM, and tubulin (10 mg/ml) stock solution, as described by the manufacturer. […] Polymerisation leads to fluorescence enhancement due to incorporation of a fluorescence reporter into polymerising microtubules and was measured by excitation at 355 nm and emission at 460 nm. Readings were taken every 20 s on EnVision Multimode Plate Reader. […]

[2] = target: T1, DCLK1-FL1Δ WT tubulin polymerisation activity (Homo sapiens, UniProt O15075); test: Tubulin polymerisation and pelleting assay with DCLK1-FL1Δ WT; format: biochemical; conditions: 20 and 40 μM (Supplementary Fig. 10c)
T1 construct: DCLK1-FL1Δ (residues 50-686); 8XHis tag with TEV protease cleavage site (N); made in house; host or cells: Escherichia coli C41(DE3)
T1 sequence (O15075 50-686 isoform O15075-2): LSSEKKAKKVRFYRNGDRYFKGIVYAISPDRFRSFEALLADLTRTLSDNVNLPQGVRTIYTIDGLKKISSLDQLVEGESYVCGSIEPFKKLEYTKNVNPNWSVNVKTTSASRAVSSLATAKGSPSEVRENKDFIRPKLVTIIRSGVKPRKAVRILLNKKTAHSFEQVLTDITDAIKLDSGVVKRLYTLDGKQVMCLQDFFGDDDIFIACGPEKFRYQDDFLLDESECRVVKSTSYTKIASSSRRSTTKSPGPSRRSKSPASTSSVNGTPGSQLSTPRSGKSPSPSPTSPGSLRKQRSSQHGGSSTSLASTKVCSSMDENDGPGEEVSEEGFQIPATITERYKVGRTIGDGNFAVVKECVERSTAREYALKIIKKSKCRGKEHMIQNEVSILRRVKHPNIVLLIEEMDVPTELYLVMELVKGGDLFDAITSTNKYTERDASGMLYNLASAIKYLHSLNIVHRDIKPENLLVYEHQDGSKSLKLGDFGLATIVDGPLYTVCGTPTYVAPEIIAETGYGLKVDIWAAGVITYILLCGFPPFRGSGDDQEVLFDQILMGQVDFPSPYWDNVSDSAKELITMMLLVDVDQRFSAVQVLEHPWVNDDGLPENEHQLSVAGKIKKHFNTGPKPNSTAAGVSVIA
Description: as §1

[3] = target: T2, DCLK1-FL1Δ D511N tubulin polymerisation (MAP function) (Homo sapiens, UniProt O15075, D511N); test: Tubulin polymerisation and pelleting assay with DCLK1-FL1Δ D511N; format: biochemical
T2 construct: DCLK1-FL1Δ (residues 50-686); 8XHis tag with TEV protease cleavage site (N); made in house; host or cells: Escherichia coli C41(DE3)
T2 sequence (O15075 50-686 isoform O15075-2 D511N): T1 sequence (O15075 50-686 isoform O15075-2) with D462N
Description: as §1

[4] = target: DCLK1-KD; set-up: method as in PMID 32251410; conditions: read-out: KD by ITC; cited from earlier work
[5] = target: T3, DCLK1-FL1Δ D511N (Homo sapiens, UniProt O15075, D511N); test: Thermal shift stability assay, DCLK1-FL1Δ D511N; format: binding; conditions: D511N mutant, 2.5-40 μM
T3 construct: DCLK1-FL1Δ (residues 50-686); 8XHis tag with TEV protease cleavage site (N); made in house; host or cells: Escherichia coli C41(DE3)
T3 sequence (O15075 50-686 D511N): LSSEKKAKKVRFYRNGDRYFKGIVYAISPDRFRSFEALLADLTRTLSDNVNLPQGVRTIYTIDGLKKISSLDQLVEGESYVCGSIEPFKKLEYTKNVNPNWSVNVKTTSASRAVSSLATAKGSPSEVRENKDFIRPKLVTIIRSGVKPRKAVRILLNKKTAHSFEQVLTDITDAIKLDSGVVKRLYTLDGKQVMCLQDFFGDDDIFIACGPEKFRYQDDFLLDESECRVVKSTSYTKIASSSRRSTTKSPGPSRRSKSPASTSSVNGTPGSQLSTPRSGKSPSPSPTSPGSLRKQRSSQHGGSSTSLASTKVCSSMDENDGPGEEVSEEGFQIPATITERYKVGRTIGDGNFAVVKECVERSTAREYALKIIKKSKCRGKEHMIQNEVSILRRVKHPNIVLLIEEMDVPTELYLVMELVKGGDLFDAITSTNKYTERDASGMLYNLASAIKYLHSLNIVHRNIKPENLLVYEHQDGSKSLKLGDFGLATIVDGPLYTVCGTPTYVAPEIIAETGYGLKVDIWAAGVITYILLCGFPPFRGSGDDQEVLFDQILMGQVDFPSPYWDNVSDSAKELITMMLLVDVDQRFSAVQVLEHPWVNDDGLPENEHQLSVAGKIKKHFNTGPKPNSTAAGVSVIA
Description: DCLK1 proteins were diluted in 150 mM NaCl, 20 mM Tris pH 8.0, 1 mM DTT to […] final concentration and assayed with the appropriate concentration of inhibitor in a total reaction volume of 25 μL. SYPRO Orange (Molecular Probes) was used as a fluorescence probe and detected at 530 nm. The data shown are representative of two independent experiments.

restoration of DCLK1-FL1Δ WT tubulin polymerisation activity [2]: did not restore
effect on DCLK1-FL1Δ D511N ability to polymerise tubulin ([3]; 20 μM or 40 μM, pelleting / SDS-PAGE (Fig. 5d)): did not impact
aggregation and pelleting of DCLK1-FL1Δ D511N upon centrifugation ([3]; 40 μM, without tubulin polymerisation (Fig. 5d lanes 12, 13)): does not cause
melting temperature change versus control compound DCLK1-NEG [5]: increased
Compound: COc1cc(N2CCN(C)CC2)ccc1Nc1ncc2c(n1)N(C)c1ccccc1C(=O)N2CC(F)(F)F [DCLK1-IN-1]
tubulin polymerisation and stabilisation by compound alone [1]: does not promote tubulin polymerisaton and stabilisation
Kd [4]: 55 nM and 109 nM
